Test results taken from patent US20220160820A1, “MODULATORS OF COMPLEMENT ACTIVITY” (Ra Pharmaceuticals, Inc., priority 2019, published 2022).

What was measured:
[1] = Quantitative whole body analysis (QWBA) of radiolabeled zilucoplan; assay type: in vivo; details: rats, 24 hours
Experimental: In some embodiments, compound permeability may be determined using quantitative whole body analysis (QWBA). QWBA is a form of analysis that uses radiography to assess distribution of radiolabeled analytes. In some embodiments, radiolabeled compounds are administered to subjects and tissue distribution of the compounds is analyzed over time.
Enhanced permeability of zilucoplan was confirmed by quantitative whole body analysis (QWBA). […] Area under the concentration curve (AUC) for each organ or tissue analyzed was expressed as a percentage of plasma AUC to yield a biodistribution value, presented in Table 2 below. […] 5:297-305, are provided for comparison.

[2] = target: surface-bound C5b-9 or soluble membrane attack complex (sC5b-9) (Homo sapiens, UniProt P01031); experiment: Binding to C5b-9 / soluble membrane attack complex
[3] = In vivo drug-drug interaction study with anti-FcRn monoclonal antibody DX-2507; details: concomitant dosing of anti-FcRn monoclonal antibody DX-2507; Cynomolgus monkeys
Source text: (§1) By inhibiting FcRN, DX-2504 inhibits Fc-mediated recycling, thereby reducing the half-life of IgG antibodies. Administration of DX-2504 serves as a model for intravenous immunoglobulin (IVIG) treatment, which reduces the half-life of IgG antibodies by overwhelming the Fc recycling mechanism with large doses of immunoglobulin.

[4] = In-vitro permeability, basement membrane model; assay type: in vitro ADME
Source text: In some embodiments, the present disclosure provides methods of inhibiting C5 activity in a tissue by contacting the tissue with a tissue-penetrating C5 inhibitor. As used herein, the term “tissue-penetrating” refers to a property characterized by tissue permeability. […] Tissue penetration may be assessed by ability to cross basement membranes. As used herein, the term “basement membrane” refers to an extracellular matrix (ECM) protein layer separating endothelial cells from underlying tissues. Tissue penetration assessments may be done in vivo or in vitro and may include the use of basement membrane models. Such models may include measuring compound diffusion across artificial basement membranes. Such models may include the use of upper and lower reservoirs separated by an artificial basement membrane. Artificial basement membranes may include any of the ECM gel membranes described in Arends, F. et al. 2016. IntechOpen, DOI: 10.5772/62519, the contents of which are herein incorporated by reference in their entirety. ECM gel membranes may be prepared to include matrix components mimicking those found in the basal lamina of neuromuscular junctions.
The ECM gel membrane was prepared to include matrix components mimicking those found in the basal lamina of neuromuscular junctions.

[5] = In vivo drug-drug interaction study with cyclosporine A; details: following cyclosporine A administration; NHPs
[6] = system: human C5 polymorphisms (including p.R885>H/C); experiment: Binding and inhibitory activities in presence of C5 polymorphisms; details: presence of clinically-relevant human C5 polymorphisms (including p.R885>H/C)
[7] = system: Co-cultures of human myotubes and neuroblastoma cells; experiment: In vitro NMJ model: autoantibody-induced C5b-9 deposition by immunofluorescence; assay type: cell-based; details: 10 μM zilucoplan; anti-AChR 637 IgG1; human sera; anti-C5b-9 immunofluorescence
Experimental: Co-cultures of human myotubes and neuroblastoma cells were prepared and cultured with human sera as an in vitro NMJ model. […] Subsequent deposition of C5b-9 was observed by immunofluorescence using an anti-C5b-9 antibody (aE11, AbCam. Cambridge. UK).

[8] = Zilucoplan levels in a patient receiving concomitant IVIG; assay type: in vivo, human; details: patient receiving concomitant therapeutic doses of IVIG
Source text: as §1

CCCCCCCCCCCCCCCC(=O)N[C@@H](CCC(=O)NCCOCCOCCOCCOCCOCCOCCOCCOCCOCCOCCOCCOCCOCCOCCOCCOCCOCCOCCOCCOCCOCCOCCOCCOCCCCC(=O)NCCCC[C@H](NC(=O)[C@@H](NC(=O)[C@@H]1CCCN1C(=O)[C@H](Cc1ccc(O)cc1)NC(=O)[C@H](CCC(=O)[O-])NC(=O)[C@H](Cc1c[nH]c2ncccc12)NC(=O)[C@H](Cc1ccc(O)cc1)NC(=O)[C@@H](NC(=O)[C@H](CC(=O)[O-])N(C)C(=O)[C@@H]1CC(=O)NCCCC[C@H](NC(C)=O)C(=O)N[C@@H](C(C)C)C(=O)N[C@@H](CCC(=O)O)C(=O)N[C@@H](CCCNC(=N)N)C(=O)N[C@@H](Cc2ccccc2)C(=O)N1)C(C)(C)C)C1CCCCC1)C(=O)[O-])C(=O)[O-].[Na+].[Na+].[Na+].[Na+] [zilucoplan]
Zilucoplan biodistribution % (tissue AUC as percentage of plasma AUC) ([1]; Bone): 15.3%
Zilucoplan biodistribution % (tissue AUC as percentage of plasma AUC) ([1]; Brain): 0.9%
Zilucoplan biodistribution % (tissue AUC as percentage of plasma AUC) ([1]; Fat): 16.2%
Zilucoplan biodistribution % (tissue AUC as percentage of plasma AUC) ([1]; Heart): 22.9%
Zilucoplan biodistribution % (tissue AUC as percentage of plasma AUC) ([1]; Large Intestine): 21.7%
Zilucoplan biodistribution % (tissue AUC as percentage of plasma AUC) ([1]; Liver): 27.1%
Zilucoplan biodistribution % (tissue AUC as percentage of plasma AUC) ([1]; Lung): 37.5%
Zilucoplan biodistribution % (tissue AUC as percentage of plasma AUC) ([1]; Lymph nodes): 12.8%
Zilucoplan biodistribution % (tissue AUC as percentage of plasma AUC) ([1]; Muscle): 7.0%
Zilucoplan biodistribution % (tissue AUC as percentage of plasma AUC) ([1]; Pancreas): 15.8%
Zilucoplan biodistribution % (tissue AUC as percentage of plasma AUC) ([1]; Small Intestine): 10.9%
Zilucoplan biodistribution % (tissue AUC as percentage of plasma AUC) ([1]; Spleen): 15.5%
Zilucoplan biodistribution % (tissue AUC as percentage of plasma AUC) ([1]; Stomach): 8.5%
Zilucoplan biodistribution % (tissue AUC as percentage of plasma AUC) ([1]; Testes): 15.5%
Zilucoplan biodistribution % (tissue AUC as percentage of plasma AUC) ([1]; Thymus): 7.8%
binding to surface-bound C5b-9 or sC5b-9 [2]: does not bind
Zilucoplan pharmacodynamics [3]: did not change
Zilucoplan pharmacokinetics [3]: did not change
fraction introduced to upper reservoir diffused to lower reservoir ([4]; 24 hours): more than 60%
fraction introduced to upper reservoir diffused to lower reservoir ([4]; after 12 hours): Greater than 20%
effects on zilucoplan exposure [5]: No effects
binding and inhibitory activities [6]: not affected
C5b-9 deposition [7]: absent
changes in zilucoplan levels [8]: no changes
